# Results reported in article PMC10002375, “Synthesis of 3-(2-Alkylthio-4-chloro-5-methylbenzenesulfonyl)-2-(1-phenyl-3-arylprop-2-enylideneamino)guanidine Derivatives with Pro-Apoptotic Activity against Cancer Cells” (International Journal of Molecular Sciences, 2023).
# Tests used:
# Assay type in all cases: cell-based, human
# HCT-116 (colon cancer) = assay: MTT cell viability assay, HCT-116; conditions: Homo sapiens, HCT-116; MTT, 72 h
# Description: (§1) All chemicals, if not stated otherwise, were obtained from Sigma-Aldrich (St. Louis, MO, USA). The MCF-7 cell line was purchased from Cell Lines Services (Eppelheim, Germany), the HeLa and HCT-116 cell lines were obtained from the Department of Microbiology, Tumor and Cell Biology, Karolinska Institute (Stockholm, Sweden). Cells were cultured in Dulbecco’s modified Eagle’s medium (DMEM) supplemented with 10% fetal bovine serum, 2 mM glutamine, 100 units/mL penicillin, and 100 μg/mL streptomycin. Cultures were maintained in a humidified atmosphere with 5% CO2 at 37 °C in an incubator (HeraCell, Heraeus, Langenselbold, Germany).
# (§2) Cell viability was determined using the MTT (3-(4,5-dimethylthiazol-2-yl)-2,5-diphenyl-tetrazoliumbromide) assay. Stock solutions of the studied compounds were prepared in 100% DMSO. […] Cells were seeded in 96-well plates at a density of 5 × 10^3 cells/well and treated for 72 h with the examined compounds in the concentration range 1–100 μM (1, 10, 25, 50, and 100 μM). Following treatment, MTT (0.5 mg/mL) was added to the medium and cells were further incubated for 2 h at 37 °C. Cells were lysed with DMSO and the absorbance of the formazan solution was measured at 550 nm with a plate reader (1420 multilabel counter, Victor, Jügesheim, Germany). […] The experiment was performed in triplicate. Values are expressed as the mean ± SD of at least three independent experiments.
# HCT-116 cells [1] = assay: Phosphatidylserine translocation (Annexin V-FITC/PI), HCT-116; conditions: HCT-116, 72 h; 24 at 10 or 25 μM, 31 at 25 μM
# Excerpt: (§3) One of the early indicators of apoptosis is the exposure of phosphatidylserine residues on the cell’s surface. Annexin V has a high affinity to phosphatidylserine and, as a conjugate to fluorescein isothiocyante (FITC), is widely used for detection of early apoptotic cells using flow cytometry. Detection of late-apoptotic or necrotic cells is achieved by using propidium iodide (PI) stain. Based on the obtained fluorescence, four subpopulations were found: PI-low/FITC-low (live cells), PI-high/FITC-low (necrotic cells), PI-low/FITC-high (early apoptotic cells), and PI-high/FITC-high (late apoptotic cells).
# (§4) Analysis was performed using FITC-conjugated annexin-V (Annexin V-FITC Apoptosis Kit I, BD Biosciences, San Jose, CA, USA) according to the manufacturer’s instructions (BD Biosciences) as described previously. HeLa, MCF-7, and HCT-116, after seeding to 24-well plates (5 × 10^4/per well) and 24 h incubation, were treated for 72 h with 24 or 31 (10/25 µM or 25 µM concentration respectively). Following treatment, cells were washed in PBS, centrifuged, and then resuspended in a binding buffer. Afterward, the cells were incubated for 15 min at 37 °C with FITC-conjugated annexin-V and propidium iodide. The samples were then analyzed using a LSR II flow cytometer (BD Biosciences) using 530 ± 25 nm (Annexin V-FITC) and 575 ± 26 nm (PI).
# (§5) The subpopulations were identified according to their fluorescence: PI-low/FITC-low (live cells), PI-high/FITC-low (necrotic cells), PI-low/FITC-high (early apoptotic cells), and PI-high/FITC-high (late apoptotic cells).
# HeLa cells [2] = assay: Cell cycle distribution by flow cytometry, HeLa; conditions: 72 h
# Description: (§6) The cell cycle distribution was measured by flow cytometry analysis after incubation of MCF-7, HeLa, and HCT-116 with compounds 24 and 31 for 72 h.
# HCT-116 cells [3] = assay: Cell cycle distribution by flow cytometry, HCT-116
# Description: as §6
# MCF-7 cells [4] = assay: Mitochondrial membrane potential (JC-1, flow cytometry), MCF-7; conditions: MCF-7, 72 h, 24 at 10 or 25 μM, 31 at 25 μM
# Excerpt: (§7) A decrease in mitochondrial potential is one of the earliest hallmarks of apoptosis. A common method for indication of cells with high and low Δψm is flow cytometry combined with specific fluorescent probes, such as JC-1 (5,5′,6,6′-tetrachloro-1,1′,3,3′-tetraethylbenzimidazolylcarbocyanine iodide). JC-1 accumulates in mitochondria and forms complexes (J aggregates) with red fluorescence in healthy cells with a normal ΔΨm, whereas in apoptotic cells with a low ΔΨm exists as a monomer with green fluorescence.
# (§8) Analyzed cells were seeded into wells of a 24-well plate at a density of 5 × 10^4 cells in 1000 µL, incubated overnight, and then the medium was exchanged for dilutions of reagents 24 and 31. Before the end of 72 h of incubation, MitoProbe JC-1 (25 µM) was added into each plate well. Carbonyl cyanide m-chlorophenylhydrazone CCCP (200 nM) as the mitochondrial oxidative phosphorylation uncoupler was added into the positive control 15 min before JC-1 was added. After 30 min of JC-1 staining, cells were washed with PBS and then trypsinized (Corning® 25-053CI). Cells suspended in PBS were analyzed by flow cytometry at λ excitation (ex) = 488 nm and λ emission (em) = 525/570 nm (LSR II BD Biosciences, San Jose, CA, USA).
# HCT-116 cells [5] = assay: Mitochondrial membrane potential (JC-1, flow cytometry), HCT-116; conditions: HCT-116, 72 h, 24 at 10 or 25 μM, 31 at 25 μM
# Excerpt: as §7, §8
# HeLa cells [6] = assay: Mitochondrial membrane potential (JC-1, flow cytometry), HeLa; conditions: 72 h, 24 at 10 or 25 μM, 31 at 25 μM
# Excerpt: as §7, §8
# MCF-7 cells [7] = assay: Phosphatidylserine translocation (Annexin V-FITC/PI), MCF-7; conditions: MCF-7, 72 h; 24 at 10 or 25 μM, 31 at 25 μM
# Excerpt: as §3, §4, §5
# MCF-7 (breast cancer) = assay: MTT cell viability assay, MCF-7; conditions: Homo sapiens, MCF7; MTT, 72 h
# Excerpt: The cytotoxic activity of the compounds 8–33 has been evaluated in MTT assays against three human cancer cell lines MCF-7 (breast cancer), HeLa (cervical cancer), and HCT-116 (colon cancer) and it was expressed as IC50 values in μM (Table 1).
# as §1, §2
# HeLa (cervical cancer) = assay: MTT cell viability assay, HeLa; conditions: Homo sapiens, HeLa; MTT, 72 h
# Description: as §1, §2
# HeLa cells [8] = assay: Phosphatidylserine translocation (Annexin V-FITC/PI), HeLa; conditions: 72 h, 24 at 10 or 25 μM, 31 at 25 μM
# Excerpt: as §3, §4, §5
# MCF-7 cells [9] = assay: Cell cycle distribution by flow cytometry, MCF-7
# Description: as §6
structure (smiles),measurement,setting,value
COc1ccc(C=CC(=NN=C(N)NS(=O)(=O)c2cc(C)c(Cl)cc2SCc2ccc(Cl)cc2)c2ccccc2)cc1 [Compound 31],IC50,HCT-116 (colon cancer),365 ± 11 µM
same,population of apoptotic cells (Annexin V-FITC/PI),HCT-116 cells [1],did not cause statistically significant differences compared to the control
same,cells in sub-G1 phase,"HeLa cells [2]; 25 μM, control 5.08%",5.45%
same,effect on cell cycle distribution,"HeLa cells [2]; 24 at 10 and 25 μM, 31 at 25 μM",does not substantially affect the cell cycle progression
same,cells in sub-G1 phase,"HCT-116 cells [3]; HCT-116, 25 μM, 72 h, control 1.15%",1.84%
same,effect on cell cycle distribution,"HCT-116 cells [3]; HCT-116, 72 h, 24 at 10 and 25 μM, 31 at 25 μM",does not substantially affect the cell cycle progression
same,change of mitochondrial membrane potential (ΔΨm),MCF-7 cells [4],did not result in a loss of ΔΨm
same,change of mitochondrial membrane potential (ΔΨm),HCT-116 cells [5],did not result in a loss of ΔΨm
same,change of mitochondrial membrane potential (ΔΨm),HeLa cells [6],did not result in a loss of ΔΨm
same,population of apoptotic cells (Annexin V-FITC/PI),MCF-7 cells [7],did not cause statistically significant differences compared to the control
same,IC50,MCF-7 (breast cancer),230 ± 13 µM
same,IC50,HeLa (cervical cancer),110 ± 5 µM
same,population of apoptotic cells (Annexin V-FITC/PI),HeLa cells [8],did not cause statistically significant differences compared to the control
same,cells in sub-G1 phase,"MCF-7 cells [9]; MCF-7, 25 μM, 72 h",2.78%
same,effect on cell cycle distribution,"MCF-7 cells [9]; MCF-7, 72 h, 24 at 10 and 25 μM, 31 at 25 μM",does not substantially affect the cell cycle progression
